According to ChEMBL document CHEMBL1201862, “PubChem BioAssay data set” (2004):
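Cells were grown in 96-well plates and exposed to each compound for 48 hours at five concentrations; endpoints were interpolated linearly between bracketing concentrations, or set to the highest concentration if not reached. GI50 marks 50% less growth.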 Active and inactive are the calls of the source. Cut-off read from the data, not from the text of the source: active = GI50 up to about 1.1 µM and inactive = higher.

Assays:
Assay in all cases: inhibition of tumour cell growth, NCI panel, 48 h
SN12C = test system: SN12C
RXF 393 = test system: RXF 393
A549 = test system: A549
ACHN = test system: ACHN
UACC-62 = test system: UACC-62
HL-60 = test system: HL-60
EKVX = test system: EKVX
Malme-3M = test system: Malme-3M
Hs-578T = test system: Hs-578T
A498 = test system: A498
NCI-H226 = test system: NCI-H226
SK-MEL-2 = test system: SK-MEL-2
NCI/ADR-RES = test system: NCI/ADR-RES
OVCAR-5 = test system: OVCAR-5
OVCAR-8 = test system: OVCAR-8
K562 = test system: K562
SK-MEL-5 = test system: SK-MEL-5
SNB-75 = test system: SNB-75
OVCAR-4 = test system: OVCAR-4
MOLT-4 = test system: MOLT-4
HCT-116 = test system: HCT-116
RPMI-8226 = test system: RPMI-8226
IGROV-1 = test system: IGROV-1
NCI-H23 = test system: NCI-H23
HCT-15 = test system: HCT-15
NCI-H460 = test system: NCI-H460
MDA-MB-435 = test system: MDA-MB-435
SK-MEL-28 = test system: SK-MEL-28
SW-620 = test system: SW-620
UO-31 = test system: UO-31
SNB-19 = test system: SNB-19
DU-145 = test system: DU-145
HT-29 = test system: HT-29
U-251 = test system: U-251
SF-539 = test system: SF-539
MDA-N = test system: MDA-N
SF-295 = test system: SF-295
TK-10 = test system: TK-10
786-0 = test system: 786-0
NCI-H522 = test system: NCI-H522
SF-268 = test system: SF-268
SR = test system: SR
MDA-MB-231 = test system: MDA-MB-231
SK-OV-3 = test system: SK-OV-3
KM12 = test system: KM12
BT-549 = test system: BT-549
UACC-257 = test system: UACC-257
M14 = test system: M14
COLO 205 = test system: COLO 205
T47D = test system: T47D
PC-3 = test system: PC-3
CCRF-CEM = test system: CCRF-CEM
CAKI-1 = test system: CAKI-1
HOP-62 = test system: HOP-62
HCC 2998 = test system: HCC 2998
OVCAR-3 = test system: OVCAR-3
LOX IMVI = test system: LOX IMVI
HOP-92 = test system: HOP-92

Measured: GI50

N#Cc1c(-c2ccccc2)c(C=O)c(=O)n2c1[nH]c1ccccc12
70 µM: HCT-15
inactive: SN12C 45.3 µM | RXF 393 42.5 µM | A549 > 100 µM | ACHN 78.3 µM | UACC-62 40.7 µM | HL-60 56.9 µM | EKVX > 100 µM | Malme-3M > 100 µM | Hs-578T 31.3 µM | A498 26.1 µM | NCI-H226 55.6 µM | SK-MEL-2 33 µM | NCI/ADR-RES > 100 µM | OVCAR-5 > 100 µM | OVCAR-8 > 100 µM | K562 67 µM | SK-MEL-5 > 100 µM | SNB-75 22.1 µM | OVCAR-4 20.5 µM | MOLT-4 33.7 µM | HCT-116 82.4 µM | RPMI-8226 63.2 µM | IGROV-1 > 100 µM | NCI-H23 61.7 µM | NCI-H460 > 100 µM | MDA-MB-435 67.1 µM | SK-MEL-28 23.9 µM | SW-620 42.6 µM | UO-31 40.6 µM | SNB-19 50.7 µM | DU-145 > 100 µM | HT-29 92 µM | U-251 50.8 µM | SF-539 77.1 µM | MDA-N 84.3 µM | SF-295 > 100 µM | TK-10 77.3 µM | 786-0 > 100 µM | NCI-H522 55.6 µM | SF-268 65.9 µM | SR 67.6 µM | MDA-MB-231 38.2 µM | SK-OV-3 > 100 µM | KM12 60.1 µM | BT-549 39.1 µM | UACC-257 > 100 µM | M14 97.5 µM | COLO 205 53.1 µM | T47D 65.9 µM | PC-3 > 100 µM | CCRF-CEM 17.6 µM | CAKI-1 > 100 µM

CC(=O)CSCc1ccccn1
86.5 µM: HCT-15
inactive: SN12C 75.5 µM | RXF 393 > 100 µM | A549 62.5 µM | ACHN 61.5 µM | UACC-62 31.3 µM | HL-60 29.1 µM | EKVX 77.1 µM | Malme-3M 4.72 µM | Hs-578T 2.69 µM | A498 51.1 µM | NCI-H226 19.9 µM | SK-MEL-2 25.9 µM | NCI/ADR-RES > 100 µM | OVCAR-5 > 100 µM | OVCAR-8 38.4 µM | K562 23.6 µM | SK-MEL-5 26 µM | SNB-75 29.4 µM | OVCAR-4 83.8 µM | MOLT-4 20.7 µM | HCT-116 45.3 µM | RPMI-8226 12.7 µM | IGROV-1 37.8 µM | NCI-H23 62.2 µM | NCI-H460 30.6 µM | HOP-62 42.4 µM | MDA-MB-435 33.4 µM | SK-MEL-28 40.2 µM | SW-620 45.8 µM | UO-31 > 100 µM | SNB-19 50.9 µM | DU-145 65.2 µM | HT-29 51.3 µM | U-251 32.2 µM | SF-539 27 µM | HCC 2998 39.9 µM | MDA-N 37.8 µM | SF-295 80.9 µM | TK-10 > 100 µM | OVCAR-3 30.3 µM | 786-0 97.1 µM | LOX IMVI 41.5 µM | NCI-H522 6.9 µM | SF-268 8.87 µM | SR 21.5 µM | MDA-MB-231 75.9 µM | SK-OV-3 > 100 µM | KM12 36.8 µM | BT-549 47.5 µM | UACC-257 41.1 µM | M14 60.5 µM | COLO 205 > 100 µM | T47D 34.8 µM | HOP-92 38.6 µM | PC-3 33.7 µM | CCRF-CEM 39.9 µM
